Data from ChEMBL document CHEMBL4619778, “Oligopeptides as Neuropeptide Y Y4 Receptor Ligands: Identification of a High-Affinity Tetrapeptide Agonist and a Hexapeptide Antagonist” (J Med Chem, 2020).
Bridge positions count the residues as written; N and C are the ends. Square brackets hold non-standard residues; d marks the D form. Peptide text beside a SMILES is read from it. I, II: the chains in the order shown. ξ: configuration not given here. ξDap = NCC(N)C(=O)O

Assays:
[1] = biological target: T1, Neuropeptide Y receptor type 4 (Homo sapiens, UniProt P50391); test: Displacement of [3H]UR-KK200 from human Y4 receptor expressed in CHO cells co-expressing Gqi5-mtAEQ measured after 90 mins by scintillation counting analysis; type: cell-based
[2] = biological target: T2, Neuropeptide Y receptor type 1 (Homo sapiens, UniProt P25929); test: Displacement of [3H]UR-MK299 from Y1 receptor in human SK-N-MC cells; type: cell-based
T2 sequence (P25929 whole entry): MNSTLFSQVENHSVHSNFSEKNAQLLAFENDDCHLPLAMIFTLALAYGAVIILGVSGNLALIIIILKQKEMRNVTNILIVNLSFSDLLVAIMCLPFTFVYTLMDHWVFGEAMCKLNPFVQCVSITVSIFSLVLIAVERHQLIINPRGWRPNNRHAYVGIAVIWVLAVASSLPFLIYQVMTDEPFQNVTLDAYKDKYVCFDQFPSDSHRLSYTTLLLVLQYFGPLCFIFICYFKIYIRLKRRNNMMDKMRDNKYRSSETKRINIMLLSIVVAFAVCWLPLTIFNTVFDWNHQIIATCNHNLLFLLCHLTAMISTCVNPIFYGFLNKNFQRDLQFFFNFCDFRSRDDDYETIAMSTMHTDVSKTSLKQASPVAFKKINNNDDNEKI

[3] = biological target: T3, Neuropeptide Y receptor type 2 (Homo sapiens, UniProt P49146); test: Displacement of [3H]propionyl-pNPY from human Y2 receptor expressed in CHO cells measured after 2 hrs by microbeta liquid scintillation counting analysis; type: cell-based
T3 sequence (P49146 whole entry): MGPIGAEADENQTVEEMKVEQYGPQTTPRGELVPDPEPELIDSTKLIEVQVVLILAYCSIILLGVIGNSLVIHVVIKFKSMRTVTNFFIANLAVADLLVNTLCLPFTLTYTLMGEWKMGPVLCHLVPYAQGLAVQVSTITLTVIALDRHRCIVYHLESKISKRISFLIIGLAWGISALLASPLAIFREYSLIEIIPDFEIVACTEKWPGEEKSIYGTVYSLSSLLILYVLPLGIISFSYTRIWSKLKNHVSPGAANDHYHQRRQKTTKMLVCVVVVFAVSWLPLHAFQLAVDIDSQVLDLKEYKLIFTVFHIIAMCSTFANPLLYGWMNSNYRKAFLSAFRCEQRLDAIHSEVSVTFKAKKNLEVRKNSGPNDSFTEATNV

[4] = biological target: T4, Neuropeptide Y receptor type 5 (Homo sapiens, UniProt Q15761); test: Displacement of [3H]propionyl-pNPY from human Y5 receptor expressed in human HEC1B cells; type: cell-based
T4 sequence (Q15761 whole entry): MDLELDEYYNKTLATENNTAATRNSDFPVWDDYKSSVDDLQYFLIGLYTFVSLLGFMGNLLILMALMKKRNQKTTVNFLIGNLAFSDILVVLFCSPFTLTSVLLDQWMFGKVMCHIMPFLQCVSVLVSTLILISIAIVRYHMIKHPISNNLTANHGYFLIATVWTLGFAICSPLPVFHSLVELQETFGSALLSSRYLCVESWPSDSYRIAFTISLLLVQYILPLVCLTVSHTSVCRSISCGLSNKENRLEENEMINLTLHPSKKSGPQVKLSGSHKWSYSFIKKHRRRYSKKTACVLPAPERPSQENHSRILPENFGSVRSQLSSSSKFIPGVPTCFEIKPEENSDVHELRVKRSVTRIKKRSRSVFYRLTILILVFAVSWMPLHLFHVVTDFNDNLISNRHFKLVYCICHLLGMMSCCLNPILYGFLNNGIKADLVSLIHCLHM

Homo sapiens [5] = species: Homo sapiens; test: Selectivity ratio of Ki for displacement of [3H]UR-MK299 from Y1 receptor in human SK-N-MC cells to Ki for displacement of [3H]UR-KK200 from human Y4 receptor expressed in CHO cells co-expressing Gqi5-mtAEQ; type: cell-based
Homo sapiens [6] = species: Homo sapiens; test: Selectivity ratio of Ki for displacement of [3H]propionyl-pNPY from human Y2 receptor expressed in CHO cells to Ki for displacement of [3H]UR-KK200 from human Y4 receptor expressed in CHO cells co-expressing Gqi5-mtAEQ; type: cell-based
Homo sapiens [7] = species: Homo sapiens; test: Selectivity ratio of Ki for displacement of [3H]propionyl-pNPY from human Y5 receptor expressed in human HEC1B cells to Ki for displacement of [3H]UR-KK200 from human Y4 receptor expressed in CHO cells co-expressing Gqi5-mtAEQ; type: cell-based
[8] = biological target: T1, Neuropeptide Y receptor type 4; test: Agonist activity at human Y4R expressed in HEK293T cells co-expressing ARRB1 assessed as induction of beta-arrestin1 recruitment measured for 40 mins by D-luciferin based luminescence assay; type: cell-based, HEK-293T
[9] = biological target: T1, Neuropeptide Y receptor type 4; test: Agonist activity at human Y4R expressed in HEK293T cells co-expressing ARRB2 assessed as induction of beta-arrestin2 recruitment measured for 40 mins by D-luciferin based luminescence assay; type: cell-based, HEK-293T
[10] = biological target: T1, Neuropeptide Y receptor type 4; test: Agonist activity at human Y4 receptor expressed in CHO cells co-expressing Gqi5-mtAEQ assessed as intracellular calcium mobilization measured for 43 secs in presence of coelenterazine by aequorin-reporter gene based luminescence assay; type: functional, cell-based

T1 sequence (P50391 whole entry): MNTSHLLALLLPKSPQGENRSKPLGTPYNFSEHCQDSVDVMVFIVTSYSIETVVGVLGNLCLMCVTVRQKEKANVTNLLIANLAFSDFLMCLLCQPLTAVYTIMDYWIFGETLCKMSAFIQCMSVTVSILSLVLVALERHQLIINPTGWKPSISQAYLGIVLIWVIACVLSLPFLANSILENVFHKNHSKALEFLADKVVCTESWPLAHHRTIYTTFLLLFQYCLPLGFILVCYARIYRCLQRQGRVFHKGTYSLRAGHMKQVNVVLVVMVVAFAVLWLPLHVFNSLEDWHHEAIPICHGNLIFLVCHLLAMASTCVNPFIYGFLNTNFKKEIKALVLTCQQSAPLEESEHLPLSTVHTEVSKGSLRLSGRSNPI

| Ki ([1]; read-out: Ki) [nM] | Ki ([1]; read-out: pKi (converted)) [nM] | Ki ([2]; read-out: Ki) [µM] | Ki ([2]; read-out: pKi (converted)) [µM] | Ki ([3]; cho, read-out: Ki) [µM] | Ki ([3]; read-out: pKi (converted)) [µM] | Ki ([4]; read-out: Ki) [µM] | Ki ([4]; read-out: pKi (converted)) [µM] | EC50 ([8]; read-out: EC50) [nM] | EC50 ([9]; read-out: EC50) [µM] | EC50 ([10]; read-out: EC50) [nM] | EC50 ([8]; read-out: pEC50 (converted)) [nM] | EC50 ([9]; read-out: pEC50 (converted)) [µM] | EC50 ([10]; read-out: pEC50 (converted)) [nM] | Ki ([2]; sk-n-mc, read-out: Ki) [µM] | Ki ([3]; read-out: Ki) [µM] | Compound | Ratio Ki (Homo sapiens [5]) | Ratio Ki (Homo sapiens [6]) | Ratio Ki (Homo sapiens [7]) |
| --- | --- | --- | --- | --- | --- | --- | --- | --- | --- | --- | --- | --- | --- | --- | --- | --- | --- | --- | --- |
| 7.9 | 7.59 | > 3 | > 3.16 | > 1 | > 1 | > 3 | > 3.16 | 180 | 0.25 | 1200 | – | – | – | – | – | Ac-RGRLRY-NH2 | > 380 | > 130 | > 380 |
| 240 | 229 | – | – | – | – | – | – | > 30000 | > 30 | > 30000 | > 31600 | > 31.6 | > 31600 | – | – | H-RYRARY-NH2 | – | – | – |
| 190 | – | – | – | – | – | – | – | > 30000 | > 30 | > 30000 | > 31600 | > 31.6 | > 31600 | – | – | H-RYRGRY-NH2 | – | – | – |
| 1.4 | – | – | > 1 | > 1 | > 1 | > 1 | > 1 | 67 | 0.035 | 120 | – | – | – | > 1 | – | CC(=O)N[C@@H](CCCNC(=N)N)C(=O)N[C@@H](Cc1c[nH]c2ccccc12)C(=O)N[C@@H](CCCNC(=N)N)C(=O)N[C@@H](CC(C)C)C(=O)N[C@@H](CCCNC(=N)N)C(=O)N[C@@H](Cc1ccc(O)cc1)C(N)=O | > 710 | > 710 | > 710 |
| 3.4 to 3.6 | 3.72 | > 3 | – | – | – | > 3 | – | 170 | 0.12 | 190 | 162 | 0.112 | 182 | – | > 3 | CC(=O)N[C@@H](CCCNC(=N)N)C(=O)N[C@@H](Cc1ccc(O)cc1)C(=O)N[C@@H](CCCNC(=N)N)C(=O)N[C@@H](CC(C)C)C(=O)N[C@@H](CCCNC(=N)N)C(=O)N[C@@H](Cc1ccc(O)cc1)C(N)=O | > 830 | > 830 | > 830 |
| 17 | 14.1 | > 3 | > 3.16 | – | > 3.16 | > 10 | > 10 | 600 | 0.51 | 2500 | – | – | – | – | > 3 | Ac-RRLRY-NH2 | > 180 | > 180 | > 590 |
| 7.4 | – | – | – | – | – | – | – | 2400 | 4.8 | – | – | 4.68 | – | – | – | CC(C)C[C@H](NC(=O)[C@H](N)CCCNC(=N)N)C(=O)N[C@@H](CCCNC(=N)N)C(=O)N[C@@H](Cc1ccc(O)cc1)C(N)=O | – | – | – |
| 1300 | – | – | – | – | – | – | – | > 30000 | > 30 | – | > 31600 | > 31.6 | – | – | – | CC(C)C[C@H](NC(=O)[C@@H](N)CCCNC(=N)N)C(=O)N[C@H](CCCNC(=N)N)C(=O)N[C@@H](Cc1ccc(O)cc1)C(N)=O | – | – | – |
| 3.4 | – | – | > 10 | > 10 | > 10 | > 10 | > 10 | 280 | 0.17 | 440 | – | – | – | > 10 | – | CC(C)C[C@H](NC(=O)[C@@H](N)CCCNC(=N)N)C(=O)N[C@@H](CCCNC(=N)N)C(=O)N[C@@H](Cc1ccc(O)cc1)C(N)=O | > 2900 | > 2900 | > 2900 |
| 120 | – | – | – | – | – | – | – | > 30000 | > 30 | > 30000 | > 31600 | > 31.6 | > 31600 | – | – | CC(=O)N[C@@H](CCCNC(=N)N)C(=O)N[C@@H](Cc1ccc(O)cc1)C(=O)N[C@@H](CCCNC(N)=O)C(=O)N[C@@H](CC(C)C)C(=O)N[C@@H](CCCNC(=N)N)C(=O)N[C@@H](Cc1ccc(O)cc1)C(N)=O | – | – | – |
| 1800 | – | – | – | – | – | – | – | > 30000 | > 30 | > 30000 | > 31600 | > 31.6 | > 31600 | – | – | Ac-RYRPRY-NH2 | – | – | – |
| 93 | – | – | – | – | – | – | – | > 30000 | > 30 | – | > 31600 | > 31.6 | – | – | – | CC(C)C[C@@H](NC(=O)[C@@H](N)CCCNC(=N)N)C(=O)N[C@@H](CCCNC(=N)N)C(=O)N[C@@H](Cc1ccc(O)cc1)C(N)=O | – | – | – |
| 0.36 | – | – | – | – | – | – | – | – | – | – | – | – | – | – | – | CC[C@H](C)[C@H](N)C(=O)N[C@H]1CCC(=O)NCC(C(=O)N[C@@H](Cc2ccc(O)cc2)C(=O)N[C@@H](CCCNC(=N)N)C(=O)N[C@@H](CC(C)C)C(=O)N[C@@H](CCCNC(=N)N)C(=O)N[C@@H](Cc2ccc(O)cc2)C(N)=O)NC(=O)[C@@H]2CCCN2C(=O)[C@@H](NC(=O)[C@@H](N)[C@@H](C)CC)CCC(=O)NCC(C(=O)N[C@@H](Cc2ccc(O)cc2)C(=O)N[C@@H](CCCNC(=N)N)C(=O)N[C@@H](CC(C)C)C(=O)N[C@@H](CCCNC(=N)N)C(=O)N[C@@H](Cc2ccc(O)cc2)C(N)=O)NC(=O)[C@@H]2CCCN2C1=O (stereo partly specified) (I: H-IEP[ξDap]YRLRY-NH2 / II: H-IEP[ξDap]YRLRY-NH2; amide I:2-II:4, I:4-II:2) | – | – | – |
| 1500 | – | – | – | – | – | – | – | > 30000 | > 30 | – | > 31600 | > 31.6 | – | – | – | CC(C)C[C@H](NC(=O)[C@@H](N)CCCNC(=N)N)C(=O)N[C@@H](CCCNC(=N)N)C(=O)N[C@H](Cc1ccc(O)cc1)C(N)=O | – | – | – |
| 63 | 56.2 | > 3 | > 3.16 | – | – | – | – | 1070 | 0.93 | – | – | – | – | – | – | CC(C)C[C@H](NC(=O)[C@H](CCCNC(=N)N)NC(=O)[C@H](Cc1ccc(O)cc1)NC(=O)[C@@H](N)CCCNC(=N)N)C(=O)N[C@@H](CCCNC(N)=O)C(=O)N[C@@H](Cc1ccc(O)cc1)C(N)=O | > 48 | – | – |
| 3.9 | – | > 3 | > 3.16 | > 1 | > 1 | > 10 | > 10 | 2500 | 1.2 | – | – | – | – | – | – | CN[C@@H](CCCNC(=N)N)C(=O)N[C@@H](CC(C)C)C(=O)N[C@@H](CCCNC(=N)N)C(=O)N[C@@H](Cc1ccc(O)cc1)C(N)=O | > 770 | > 260 | > 2600 |
| 350 | – | – | – | – | – | – | – | > 30000 | > 30 | > 30000 | > 31600 | > 31.6 | > 31600 | – | – | N=C(N)NCCC[C@H](NC(=O)[C@H](Cc1c[nH]c2ccccc12)NC(=O)[C@@H](N)CCCNC(=N)N)C(=O)N[C@@H](Cc1ccc(O)cc1)C(N)=O (H-RWRY-NH2) | – | – | – |
| 4.8 | 4.47 | > 3 | > 3.16 | – | > 3.16 | > 10 | > 10 | 100 | 0.15 | – | – | – | – | – | > 3 | CC(C)C[C@H](NC(=O)[C@H](CCCNC(=N)N)NC(=O)[C@H](Cc1ccc(O)cc1)NC(=O)[C@@H](N)CCCNC(N)=O)C(=O)N[C@@H](CCCNC(=N)N)C(=O)N[C@@H](Cc1ccc(O)cc1)C(N)=O | > 630 | > 630 | > 2100 |
